The target in the experiment is Adenylate kinase 4, mitochondrial (Homo sapiens) (UniProt P27144). The experiment is described as follows: ligand-induced stabilization of human AK3 (AK4) – biophysical, DSF, SYPRO orange (AID 380). The conditions noted are these: recombinant protein, DSF SYPRO orange thermal shift; at 5 µM; protein 1 µM; buffer 10 mM HEPES; active compounds read high.
Chain of Adenylate kinase 4, mitochondrial (Homo sapiens) (P27144 whole entry, looked up): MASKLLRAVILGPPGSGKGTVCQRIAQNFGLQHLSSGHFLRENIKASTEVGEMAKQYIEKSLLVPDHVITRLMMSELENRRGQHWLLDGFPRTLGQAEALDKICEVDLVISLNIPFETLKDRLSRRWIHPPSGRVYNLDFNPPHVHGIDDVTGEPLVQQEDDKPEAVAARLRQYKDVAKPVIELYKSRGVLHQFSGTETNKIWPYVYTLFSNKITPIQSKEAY

Turning to `Nc1ncnc2c1ncn2[C@@H]1O[C@H](COP(=O)(O)OP(=O)(O)OP(=O)(O)OP(=O)(O)OP(=O)(O)OC[C@H]2O[C@@H](n3cnc4c(N)ncnc43)[C@H](O)[C@@H]2O)[C@@H](O)[C@H]1O`, the Tm shift was 17.2 Celsius.

The record behind these values is PubChem BioAssay AID380.
